This is an account of results in PubChem BioAssay (NCI).

Test systems include MCF7 breast; MDA-MB-231 breast; BT-549 breast; T-47D breast; HOP-18 NSCLC; LXFL 529 NSCLC; DMS 273 small cell lung; DMS 114 small cell lung; KM20L2 colon; DLD-1 colon; SNB-78 CNS.
Common to all, as to experiment: NCI-60 cell line screen, 48 h

Structures are written as SMILES.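 Grown in 96-well plates, cells were treated for 48 hours with each compound at five concentrations. Insufficient inhibition: endpoint recorded as highest concentration tested. GI50: concentration for 50% inhibition of growth. The concentration for full growth arrest is given as TGI.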 A value given as a limit tells only on which side of the number the result lay.

Regarding `O=C(Nc1nc2ccc(S(=O)(=O)Nc3ccc(C4(C(F)(F)F)CC4)cc3)cc2[nH]1)c1cnccn1`, the GI50 in the experiment with MCF7 breast was 0.551 µM; in the experiment with MDA-MB-231 breast it was 5.32 µM; in the experiment on BT-549 breast it was 1.91 µM; with T-47D breast it was 3.8 µM. Besides, the TGI in the experiment with MCF7 breast was found to be 13.4 µM; in the experiment on MDA-MB-231 breast it was 19.4 µM; in the experiment on BT-549 breast, 16.1 µM; in the experiment with T-47D breast it was 23.9 µM.
As to `CC(C)(C)OC(=O)N[C@H]1CC(=O)c2ccccc2N(CC(=O)O)C1=O`, the TGI in the experiment with HOP-18 NSCLC, with LXFL 529 NSCLC, in the experiment on DMS 273 small cell lung, with DMS 114 small cell lung, with KM20L2 colon and in the experiment with DLD-1 colon was more than 100 µM in each case.
With `CC(=O)Nc1cccc(C#Cc2cncnc2Nc2ccc(OCc3cccc(F)c3)c(Cl)c2)c1`, the GI50 in the experiment with MCF7 breast is 8.33 µM; with MDA-MB-231 breast, 15.6 µM; in the experiment on BT-549 breast, 11.9 µM; in the experiment on T-47D breast it was 3.7 µM. Also, the TGI in the experiment with MCF7 breast, in the experiment with MDA-MB-231 breast, with BT-549 breast and in the experiment with T-47D breast was more than 25 µM in each case.
For `O=C(Nc1ccccc1C(=O)NC(=O)c1ccccc1NC(=O)c1ccccc1)c1ccccc1`, the TGI in the experiment on HOP-18 NSCLC is 17.9 µM; in the experiment with DMS 273 small cell lung, 7.78 µM; in the experiment with DMS 114 small cell lung it was 9.74 µM; in the experiment on KM20L2 colon, 15.6 µM; with DLD-1 colon, 29.7 µM.
For the compound `Nc1nc(-c2ccccc2)c(CC(=O)O)s1`, the TGI with MCF7 breast, in the experiment with MDA-MB-231 breast, in the experiment on BT-549 breast and in the experiment with T-47D breast was more than 100 µM in each case.
Regarding `CCOC(=O)C1=C(C)N(NC(N)=O)C2(N)N(NC(N)=O)C(C)=C(C(=O)OCC)C12C#N` (configuration not stated), the TGI in the experiment on LXFL 529 NSCLC, in the experiment on DMS 273 small cell lung, with DMS 114 small cell lung, in the experiment on KM20L2 colon and in the experiment with DLD-1 colon was more than 100 µM throughout.
Turning to `O=c1[nH]c2ccccc2cc1-c1nnc(Cc2ccccc2)o1`, the GI50 with MCF7 breast is 2.41 µM; with MDA-MB-231 breast, 3.29 µM; with BT-549 breast, 2.56 µM; in the experiment on T-47D breast it was 3.04 µM. The TGI in the experiment with MCF7 breast was 12.9 µM; in the experiment on MDA-MB-231 breast, 14.7 µM; with BT-549 breast it was 10.2 µM; in the experiment on T-47D breast, 17.1 µM.
As for `O=c1[nH]c(=S)[nH]c(O)c1/C=C1\C=Nc2ccccc21`, the GI50 was 3.95 µM with MCF7 breast, 4.1 µM with MDA-MB-231 breast, 9.92 µM with BT-549 breast and 34.4 µM with T-47D breast. Also, the TGI in the experiment with MCF7 breast was 23.9 µM; with MDA-MB-231 breast, 33.6 µM; in the experiment with BT-549 breast, 37.4 µM; in the experiment with T-47D breast, more than 100 µM.
As to `OCc1ccc(-c2ccc(-c3ccc(CO)o3)o2)o1`, the GI50 in the experiment on MCF7 breast was 16.7 µM; in the experiment with MDA-MB-231 breast, 33.1 µM; in the experiment with BT-549 breast, more than 100 µM; with T-47D breast it was 22.7 µM. Further, the TGI with MCF7 breast, in the experiment with MDA-MB-231 breast, in the experiment on BT-549 breast and with T-47D breast was more than 100 µM each time.
Turning to `CN(C)C1C(=O)C(C(N)=O)=C(O)C2(O)C(=O)C3=C(O)c4c(O)cccc4C(C)(O)C3CC12.[Cl][Sb]([Cl])[Cl]` (configuration not stated), the GI50 in the experiment on MCF7 breast is 3.55 µM; in the experiment with MDA-MB-231 breast it was 4.3 µM; with BT-549 breast, 2.95 µM; in the experiment with T-47D breast it was 3.81 µM. In addition, the TGI was determined as 13 µM with MCF7 breast, 15.3 µM with MDA-MB-231 breast, 10.4 µM in the experiment with BT-549 breast and 13.2 µM with T-47D breast.
For `CCOC(=O)[C@@H](C)C[C@H](Cc1ccccc1)NC(=O)c1csc([C@@H](C[C@H](C(C)C)N(C)C(=O)CNC(=O)[C@H]2CCCCN2C)OC(C)=O)n1`, the GI50 in the experiment on MCF7 breast was 0.319 µM; with MDA-MB-231 breast, 1.44 µM; with BT-549 breast, 0.891 µM; in the experiment with T-47D breast it was 0.59 µM. For the same compound, the TGI was more than 14.3 µM in the experiment on MCF7 breast, more than 10.8 µM with MDA-MB-231 breast, more than 14.3 µM in the experiment with BT-549 breast and more than 14.3 µM with T-47D breast.
Take `O=C1C=CC2(CCC23C=CC(=O)O3)O1` (configuration not stated): the TGI with HOP-18 NSCLC, with LXFL 529 NSCLC, in the experiment with DMS 114 small cell lung, with SNB-78 CNS, in the experiment with KM20L2 colon and with DLD-1 colon was more than 100 µM throughout.
In the case of `CCOC(=O)C[C@@]12CCCN[C@]1(C)CCc1ccccc12`, the TGI in the experiment on HOP-18 NSCLC, in the experiment on LXFL 529 NSCLC, in the experiment with SNB-78 CNS, with KM20L2 colon and with DLD-1 colon was more than 100 µM in each case.
For the compound `COc1ccc(N(CC(=O)O)N=O)cc1`, the TGI with MCF7 breast, in the experiment on MDA-MB-231 breast, in the experiment with BT-549 breast and in the experiment with T-47D breast was more than 100 µM each time.
Turning to `COC(=O)c1ccc(NC(N)=NCCC(C)(C)c2ccc(C(F)(F)F)cc2)nc1`, the GI50 in the experiment on MCF7 breast was 1.7 µM; in the experiment on MDA-MB-231 breast, 1.76 µM; in the experiment with BT-549 breast it was 4.85 µM; in the experiment on T-47D breast, 1.62 µM. Further, the TGI in the experiment on MCF7 breast came to 3.87 µM; in the experiment with MDA-MB-231 breast it was 3.34 µM; in the experiment on BT-549 breast, 18.1 µM; in the experiment on T-47D breast it was 4.71 µM.
For `N#CN1CC[C@H](C(=O)Nc2ncc(-c3ccccc3)s2)C1`, the GI50 in the experiment on MCF7 breast was 0.19 µM; with MDA-MB-231 breast, 0.41 µM; with BT-549 breast, 0.156 µM; with T-47D breast it was 0.483 µM. The TGI with MCF7 breast is 1.32 µM; in the experiment on MDA-MB-231 breast it was 4.65 µM; in the experiment with BT-549 breast, 0.821 µM; in the experiment with T-47D breast it was 3.35 µM.
For the compound `Cc1cc(OC2OC(CO)C(O)C(O)C2O)ccc1O` (configuration not stated), the TGI in the experiment with MCF7 breast, with MDA-MB-231 breast, in the experiment with BT-549 breast and in the experiment with T-47D breast was more than 100 µM each time.
Turning to `CCc1c(OC(C)=O)c2c(NC3OC(COC(C)=O)C(OC(C)=O)C(OC(C)=O)C3OC(C)=O)nc(SC)nc2oc1=O` (configuration not stated), the TGI with HOP-18 NSCLC, with LXFL 529 NSCLC, with DMS 114 small cell lung, in the experiment with SNB-78 CNS, with KM20L2 colon and with DLD-1 colon was more than 100 µM in each case.
